Experiments:
Test in all cases: viability relative to DMSO control (fraction); higher = less drug effect (more viable cells)
Details in all cases: 48 h
[1] = tested on: primary ALL patient cells (S048)
How it was run: (§1)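 Primary mononuclear tumour cells (Ficoll-isolated from blood or bone marrow, or processed lymph node; fresh or cryopreserved) were plated at 4 × 10^4 cells per well in 384-well plates with pre-plated compounds at five concentrations, one well each. Medium was RPMI-1640 with penicillin/streptomycin, L-glutamine and human serum, at 37 °C and 5% CO2 for 48 h. Viability was read as CellTiter-Glo luminescence relative to the median of 16 inner DMSO wells.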

[2] = tested on: primary ALL patient cells (S088)
How it was run: as §1

[3] = tested on: primary AML patient cells (S007)
How it was run: as §1

[4] = tested on: primary AML patient cells (S011)
How it was run: as §1

[5] = tested on: primary AML patient cells (S012)
How it was run: as §1

[6] = tested on: primary AML patient cells (S019)
How it was run: as §1

[7] = tested on: primary AML patient cells (S027)
How it was run: as §1

[8] = tested on: primary AML patient cells (S056)
How it was run: as §1

[9] = tested on: primary AML patient cells (S079)
How it was run: as §1

[10] = tested on: primary AML patient cells (S085)
How it was run: as §1

[11] = tested on: primary CLL patient cells (S031)
How it was run: as §1

[12] = tested on: primary FL patient cells (S022)
How it was run: as §1

[13] = tested on: primary FL patient cells (S087)
How it was run: as §1

[14] = tested on: primary MCL patient cells (S041)
How it was run: as §1

[15] = tested on: primary MCL patient cells (S063)
How it was run: as §1

## CCN1CCN(Cc2ccc(Nc3ncc(F)c(-c4cc(F)c5nc(C)n(C(C)C)c5c4)n3)nc2)CC1
[1]; 0.024 µM
  viability: 0.546
[1]; 0.12 µM
  viability: 0.443
[1]; 0.6 µM
  viability: 0.263
[1]; 3 µM
  viability: 0.0396
[1]; 15 µM
  viability: 0.00487
[2]; 0.024 µM
  viability: 0.616
[2]; 0.12 µM
  viability: 0.625
[2]; 0.6 µM
  viability: 0.517
[2]; 3 µM
  viability: 0.169
[2]; 15 µM
  viability: 0.012
[3]; 0.024 µM
  viability: 0.759
[3]; 0.12 µM
  viability: 0.725
[3]; 0.6 µM
  viability: 0.782
[3]; 3 µM
  viability: 0.668
[3]; 15 µM
  viability: 0.0289
[4]; 0.024 µM
  viability: 1.74
[4]; 0.12 µM
  viability: 1.08
[4]; 0.6 µM
  viability: 1.09
[4]; 3 µM
  viability: 0.0537
[4]; 15 µM
  viability: 0.01
[5]; 0.024 µM
  viability: 1.11
[5]; 0.12 µM
  viability: 1.04
[5]; 0.6 µM
  viability: 1.07
[5]; 3 µM
  viability: 0.986
[5]; 15 µM
  viability: 0.902
[6]; 0.024 µM
  viability: 1.18
[6]; 0.12 µM
  viability: 0.939
[6]; 0.6 µM
  viability: 1.13
[6]; 3 µM
  viability: 0.232
[6]; 15 µM
  viability: 0.0632
[7]; 0.024 µM
  viability: 1.05
[7]; 0.12 µM
  viability: 1.05
[7]; 0.6 µM
  viability: 0.953
[7]; 3 µM
  viability: 0.313
[7]; 15 µM
  viability: 0.018
[8]; 0.024 µM
  viability: 0.703
[8]; 0.12 µM
  viability: 0.546
[8]; 0.6 µM
  viability: 0.444
[8]; 3 µM
  viability: 0.136
[8]; 15 µM
  viability: 0.0316
[9]; 0.024 µM
  viability: 0.969
[9]; 0.12 µM
  viability: 1.07
[9]; 0.6 µM
  viability: 1.03
[9]; 3 µM
  viability: 0.598
[9]; 15 µM
  viability: 0.0143
[10]; 0.024 µM
  viability: 0.895
[10]; 0.12 µM
  viability: 1.01
[10]; 0.6 µM
  viability: 1.22
[10]; 3 µM
  viability: 0.265
[10]; 15 µM
  viability: 0.0115
[11]; 0.024 µM
  viability: 0.841
[11]; 0.12 µM
  viability: 0.752
[11]; 0.6 µM
  viability: 0.771
[11]; 3 µM
  viability: 0.238
[11]; 15 µM
  viability: 0.00593
[12]; 0.024 µM
  viability: 1.12
[12]; 0.12 µM
  viability: 1.01
[12]; 0.6 µM
  viability: 1.06
[12]; 3 µM
  viability: 0.616
[12]; 15 µM
  viability: 0.00982
[13]; 0.024 µM
  viability: 1.01
[13]; 0.12 µM
  viability: 0.934
[13]; 0.6 µM
  viability: 0.962
[13]; 3 µM
  viability: 0.763
[13]; 15 µM
  viability: 0.0109
[14]; 0.024 µM
  viability: 0.938
[14]; 0.12 µM
  viability: 0.812
[14]; 0.6 µM
  viability: 0.757
[14]; 3 µM
  viability: 0.0785
[14]; 15 µM
  viability: 0.00539
[15]; 0.024 µM
  viability: 1.08
[15]; 0.12 µM
  viability: 0.99
[15]; 0.6 µM
  viability: 0.951
[15]; 3 µM
  viability: 0.605
[15]; 15 µM
  viability: 0.00904

## CN1CC[C@H](c2c(O)cc(O)c3c(=O)cc(-c4ccccc4Cl)oc23)[C@H](O)C1 [Flavopiridol]
[1]; 0.0032 µM
  viability: 0.998
[1]; 0.016 µM
  viability: 1
[1]; 0.08 µM
  viability: 1.1
[1]; 0.4 µM
  viability: 0.535
[1]; 2 µM
  viability: 0.0207
[2]; 0.0032 µM
  viability: 0.955
[2]; 0.016 µM
  viability: 0.916
[2]; 0.08 µM
  viability: 1.08
[2]; 0.4 µM
  viability: 0.0921
[2]; 2 µM
  viability: 0.0295
[3]; 0.0032 µM
  viability: 0.945
[3]; 0.016 µM
  viability: 0.68
[3]; 0.08 µM
  viability: 0.624
[3]; 0.4 µM
  viability: 0.127
[3]; 2 µM
  viability: 0.0782
[4]; 0.0032 µM
  viability: 0.859
[4]; 0.016 µM
  viability: 0.754
[4]; 0.08 µM
  viability: 0.715
[4]; 0.4 µM
  viability: 0.0633
[4]; 2 µM
  viability: 0.0225
[5]; 0.0032 µM
  viability: 0.979
[5]; 0.016 µM
  viability: 0.904
[5]; 0.08 µM
  viability: 0.869
[5]; 0.4 µM
  viability: 0.151
[5]; 2 µM
  viability: 0.0418
[6]; 0.0032 µM
  viability: 1.08
[6]; 0.016 µM
  viability: 0.769
[6]; 0.08 µM
  viability: 0.961
[6]; 0.4 µM
  viability: 0.198
[6]; 2 µM
  viability: 0.0784
[7]; 0.0032 µM
  viability: 1.04
[7]; 0.016 µM
  viability: 0.947
[7]; 0.08 µM
  viability: 0.842
[7]; 0.4 µM
  viability: 0.0906
[7]; 2 µM
  viability: 0.0365
[8]; 0.0032 µM
  viability: 0.928
[8]; 0.016 µM
  viability: 0.75
[8]; 0.08 µM
  viability: 0.367
[8]; 0.4 µM
  viability: 0.065
[8]; 2 µM
  viability: 0.0807
[9]; 0.0032 µM
  viability: 1.01
[9]; 0.016 µM
  viability: 0.979
[9]; 0.08 µM
  viability: 0.878
[9]; 0.4 µM
  viability: 0.112
[9]; 2 µM
  viability: 0.0261
[10]; 0.0032 µM
  viability: 0.86
[10]; 0.016 µM
  viability: 0.858
[10]; 0.08 µM
  viability: 0.651
[10]; 0.4 µM
  viability: 0.0968
[10]; 2 µM
  viability: 0.0387
[11]; 0.0032 µM
  viability: 1.04
[11]; 0.016 µM
  viability: 0.914
[11]; 0.08 µM
  viability: 0.963
[11]; 0.4 µM
  viability: 0.0407
[11]; 2 µM
  viability: 0.0147
[12]; 0.0032 µM
  viability: 1.04
[12]; 0.016 µM
  viability: 0.958
[12]; 0.08 µM
  viability: 0.995
[12]; 0.4 µM
  viability: 0.227
[12]; 2 µM
  viability: 0.187
[13]; 0.0032 µM
  viability: 0.967
[13]; 0.016 µM
  viability: 0.91
[13]; 0.08 µM
  viability: 1
[13]; 0.4 µM
  viability: 0.644
[13]; 2 µM
  viability: 0.638
[14]; 0.0032 µM
  viability: 1.01
[14]; 0.016 µM
  viability: 0.914
[14]; 0.08 µM
  viability: 0.892
[14]; 0.4 µM
  viability: 0.0723
[14]; 2 µM
  viability: 0.0378
[15]; 0.0032 µM
  viability: 0.987
[15]; 0.016 µM
  viability: 0.935
[15]; 0.08 µM
  viability: 0.887
[15]; 0.4 µM
  viability: 0.269
[15]; 2 µM
  viability: 0.0178
